Assays:
CK2α2β2 holoenzyme = target: T1, CK2α2β2 holoenzyme (Homo sapiens, UniProt P68400); experiment: Olig2 phosphorylation assay (CK2β-dependent protein substrate); assay type: biochemical; details: 50 μM compound; GST-Olig-2, CK2α, increasing CK2β
T1 construct: made in house; host or cells: Escherichia coli (CK2α)
Protocol: For Olig2 phosphorylation assay, GST-Olig2 fusion protein (3.7 μg) was incubated with 200 nM CK2α, in the absence or presence of 50 μM compound 1 and increasing concentrations of CK2β. Samples were analyzed by SDS PAGE and subjected to autoradiography. Phosphoproteins were quantified by densitometry scanning. For eIF2 peptide phosphorylation assay, the CK2β-dependent peptide substrate (600 μM) was incubated with CK2α (40–50 nM) and increasing concentrations of compound 1 or/and CK2β.
Fig. S3. Compound 1 inhibits CK2β-dependent phosphorylation of Olig2 transcription factor and CK2β-dependent autophosphorylation. (a) CK2α (200 nM) was incubated with increasing concentrations of CK2β in the absence or presence of compound 1 (50 μM) followed by the addition of GST-Olig2 (3.7 μg), [γ^32P]-ATP (100 μM, 1 μCi) and MgCl2 (10 mM). Samples were analyzed by SDS PAGE and subjected to autoradiography. Left and right parts of the image are from the same gel (see Supplementary Fig. S16). (b) ^32P incorporated into GST-Olig2 was determined by densitometry scanning and is expressed as arbitrary units; (c) CK2β (300 nM) was incubated with increasing concentrations of compound 1, 10 μM [γ^32P] […] Phosphorylated proteins were separated by SDS/PAGE and analyzed by autoradiography (c) or Coomassie Blue staining (d); ^32P incorporation into CK2β was quantified and expressed as arbitrary units (e). […]

CK2α/CK2β interaction [1] = target: T2, CK2α/CK2β interaction (Homo sapiens, UniProt P68400); experiment: SPR competition study of MBP-CK2β binding to GST-CK2α; details: 70 μM
T2 sequence (P68400 whole entry): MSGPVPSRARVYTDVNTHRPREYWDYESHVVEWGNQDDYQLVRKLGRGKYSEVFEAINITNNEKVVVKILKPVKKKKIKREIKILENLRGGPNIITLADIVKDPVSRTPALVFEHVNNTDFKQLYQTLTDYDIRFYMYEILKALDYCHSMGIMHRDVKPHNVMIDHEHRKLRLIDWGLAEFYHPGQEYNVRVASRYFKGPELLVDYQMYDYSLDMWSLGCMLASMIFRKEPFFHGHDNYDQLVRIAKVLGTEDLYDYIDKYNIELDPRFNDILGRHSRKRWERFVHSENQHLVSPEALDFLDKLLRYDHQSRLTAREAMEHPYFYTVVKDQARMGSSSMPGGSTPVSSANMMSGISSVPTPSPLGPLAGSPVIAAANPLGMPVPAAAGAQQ
Protocol: SPR competition studies (Fig. 2i) were performed using a BIAcore 3000 instrument (BIAcore AB) equipped with a CM5 sensor chip (BIAcore AB). After activation with a solution of N-hydroxysuccinimide and N-ethyl-N-(dimethylaminopropyl)carbodiimide hydrochloride (coupling solution BIAcore AB), the anti-GST antibody diluted at 30 μg/ml in 10 mM acetate buffer pH 5.0 was injected at a flow rate of 5 μL/min for 7 min. All the surfaces were blocked with a 3 min injection at 10 μL/min of 1 M ethanolamine, pH 8.0. GST-CK2α (50 μg/ml) was immobilized on the surface at a flow rate of 5 μL/min in HBS (10 mM Hepes pH 7.3, 0.15 M NaCl, 3 mM EDTA, 0.005% polysorbate 20). MBP-CK2β diluted at 50 μg/ml in HBS buffer was injected over the surface at a flow rate of 5 μL/min in presence of various compound 1 concentration. Regeneration of the surfaces was achieved by injection of 10 mM glycine-HCl pH 2.2. SPR binding studies (Supplementary Fig. S7) were performed using a Reichert SR7000DC instrument optical biosensor (Reichert Technologies) equipped with a CMD500m sensor chip obtained from XanTec Bioanalytics. CK2α was immobilized by a capturing approach using a monoclonal anti-GST antibody (27 kDa, Clone GST-R 6G9 produced in rat, SAB4200055 Sigma Aldrich). […]

[2] = tested on: panel of 45 recombinant protein kinases; experiment: Kinase selectivity profiling, whole panel; assay type: biochemical, human; details: focused selectivity panel of 45 kinases, 100 μM
Protocol: Kinase selectivity of compound 1 was assessed using a panel of 45 recombinant protein kinases. The assays were performed at 10 μM ATP in the presence of 100 μM inhibitor using the Kinase profiler panel service (Millipore). Inhibition, expressed as the percent of activity determined in the absence of inhibitor, was calculated from the residual activity measured in the presence of 100 μM inhibitor.
Fig. S4. Kinase selectivity profile of compound 1 on a panel of 45 different protein kinases. The assays were performed at 10 μM ATP in the presence of 100 μM compound 1 using the Upstate Kinase Profiler Panel Service (Millipore). Residual activity in presence of 100 μM compound 1 are depicted in (a) and a graphical representation of the inhibition percentage in the presence of 100 μM compound 1 is shown in (b).

CK2α/CK2β interaction [3] = target: T2, CK2α/CK2β interaction; experiment: In vitro CK2α/CK2β interaction assay ([35S]methionine-labeled CK2α, plate-bound MBP-CK2β); assay type: binding
Protocol: The CK2α/CK2β interaction assay involved competition between plate-bound MBP-CK2β and the selected compounds for binding to soluble [^35S]methionine-labeled CK2α (10^5 cpm). The assays were performed in reacti-Bind streptavidin-coated high-binding-capacity 96-well plates (Pierce) in which each well was coated with 250 ng of biotinylated MBP-CK2β in 50 mM Tris/HCl, pH 7.2, and 0.4 M NaCl buffer. The compounds and [^35S]methionine-labeled CK2α were added in each well in the same buffer, incubated for 1 h at room temperature and triple-washed, after which the radioactivity of each well was determined using a scintillation counter. Positive control (100% competition) was determined with a 10-fold molar excess of untagged CK2α, and negative control (0% competition) was performed in the absence of competitor[35].

T1 sequence (P68400 whole entry): as above

Q: Which results are given for `COc1[nH]c2ccc(F)cc2c1C(=O)OCC1CCN(CCNS(C)(=O)=O)CC1` [Compound 1]?
A: decrease in Olig-2 phosphorylation (CK2α2β2 holoenzyme): ~ 50%; reduction of SPR signal (MBP-CK2β binding to GST-CK2α) (CK2α/CK2β interaction [1]): about 60%; Gini coefficient [2]: 0.81; IC50 (CK2α/CK2β interaction [3]): ~80 µM; reduction of bound radioactive CK2α (CK2α/CK2β interaction [3]; single dose 300 μM): about 75%

Source: paper PMC6828666, “Discovery of holoenzyme-disrupting chemicals as substrate-selective CK2 inhibitors” (Scientific Reports, 2019)
